Test results reported in the supplement of paper PMC10307832.

Assays:
Assay in all cases: relative viability (nuclei count vs DMSO), 5 days (fraction); higher = more cells survive
COR-L23 = test system: COR-L23
How it was run: (§1)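 Five library-drug doses in √10 steps were combined with a fixed anchor-drug dose, or a single drug was given alone, by pin tool to lung cancer cell lines in 1536-well plates the day after seeding. Nuclei were stained and counted after 5 days. Relative viability is the nuclei count in treated wells over that in vehicle wells, taken as the median of duplicate plates.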

NCI-H1437 = test system: NCI-H1437
How it was run: as §1

ChaGo-K-1 = test system: ChaGo-K-1
How it was run: as §1

SK-MES-1 = test system: SK-MES-1
How it was run: as §1

SW 1573 = test system: SW 1573
How it was run: as §1

NCI-H1648 = test system: NCI-H1648
How it was run: as §1

NCI-H1651 = test system: NCI-H1651
How it was run: as §1

ABC-1 = test system: ABC-1
How it was run: as §1

## Nc1ccn([C@@H]2O[C@H](CO)[C@@H](O)[C@@H]2O)c(=O)n1 [Cytarabine] + Nc1nc2[nH]cc(CCc3ccc(C(=O)N[C@@H](CCC(=O)O)C(=O)O)cc3)c2c(=O)[nH]1 [Pemetrexed] (partner 0.2 µM)
COR-L23; first compound 0.005 µM
  relative viability: 0.196
COR-L23; first compound 0.01581 µM
  relative viability: 0.204
COR-L23; first compound 0.05 µM
  relative viability: 0.206
COR-L23; first compound 0.1581 µM
  relative viability: 0.16
COR-L23; first compound 0.5 µM
  relative viability: 0.158
NCI-H1437; first compound 0.005 µM
  relative viability: 0.339
NCI-H1437; first compound 0.01581 µM
  relative viability: 0.344
NCI-H1437; first compound 0.05 µM
  relative viability: 0.335
NCI-H1437; first compound 0.1581 µM
  relative viability: 0.321
NCI-H1437; first compound 0.5 µM
  relative viability: 0.258
ChaGo-K-1; first compound 0.005 µM
  relative viability: 0.264
ChaGo-K-1; first compound 0.01581 µM
  relative viability: 0.249
ChaGo-K-1; first compound 0.05 µM
  relative viability: 0.239
ChaGo-K-1; first compound 0.1581 µM
  relative viability: 0.209
ChaGo-K-1; first compound 0.5 µM
  relative viability: 0.192
SK-MES-1; first compound 0.005 µM
  relative viability: 0.684
SK-MES-1; first compound 0.01581 µM
  relative viability: 0.595
SK-MES-1; first compound 0.05 µM
  relative viability: 0.336
SK-MES-1; first compound 0.1581 µM
  relative viability: 0.233
SK-MES-1; first compound 0.5 µM
  relative viability: 0.207
SW 1573; first compound 0.005 µM
  relative viability: 0.675
SW 1573; first compound 0.01581 µM
  relative viability: 0.576
SW 1573; first compound 0.05 µM
  relative viability: 0.386
SW 1573; first compound 0.1581 µM
  relative viability: 0.107
SW 1573; first compound 0.5 µM
  relative viability: 0.0809
NCI-H1648; first compound 0.005 µM
  relative viability: 0.563
NCI-H1648; first compound 0.01581 µM
  relative viability: 0.733
NCI-H1648; first compound 0.05 µM
  relative viability: 0.838
NCI-H1648; first compound 0.1581 µM
  relative viability: 0.653
NCI-H1648; first compound 0.5 µM
  relative viability: 0.515
NCI-H1651; first compound 0.005 µM
  relative viability: 0.479
NCI-H1651; first compound 0.01581 µM
  relative viability: 0.569
NCI-H1651; first compound 0.05 µM
  relative viability: 0.223
NCI-H1651; first compound 0.1581 µM
  relative viability: 0.451
NCI-H1651; first compound 0.5 µM
  relative viability: 0.221

## CC(=O)O[C@@]12CO[C@@H]1C[C@H](O)[C@@]1(C)C(=O)[C@H](O)C3=C(C)[C@@H](OC(=O)[C@H](O)[C@@H](NC(=O)OC(C)(C)C)c4ccccc4)C[C@@](O)([C@@H](OC(=O)c4ccccc4)[C@H]21)C3(C)C [Docetaxel] + CC(=O)c1c(C)c2cnc(Nc3ccc(N4CCNCC4)cn3)nc2n(C2CCCC2)c1=O [Palbociclib] (partner 0.5 µM)
COR-L23; first compound 0.0002 µM
  relative viability: 0.299
COR-L23; first compound 0.000632 µM
  relative viability: 0.262
COR-L23; first compound 0.002 µM
  relative viability: 0.142
COR-L23; first compound 0.006325 µM
  relative viability: 0.141
COR-L23; first compound 0.02 µM
  relative viability: 0.108
NCI-H1437; first compound 0.0002 µM
  relative viability: 0.261
NCI-H1437; first compound 0.000632 µM
  relative viability: 0.33
NCI-H1437; first compound 0.002 µM
  relative viability: 0.297
NCI-H1437; first compound 0.02 µM
  relative viability: 0.156
ChaGo-K-1; first compound 0.0002 µM
  relative viability: 0.883
ChaGo-K-1; first compound 0.000632 µM
  relative viability: 0.677
ChaGo-K-1; first compound 0.002 µM
  relative viability: 0.418
ChaGo-K-1; first compound 0.006325 µM
  relative viability: 0.313
ABC-1; first compound 0.0002 µM
  relative viability: 0.568
ABC-1; first compound 0.000632 µM
  relative viability: 0.587
ABC-1; first compound 0.002 µM
  relative viability: 0.539
ABC-1; first compound 0.006325 µM
  relative viability: 0.444
ABC-1; first compound 0.02 µM
  relative viability: 0.437
SK-MES-1; first compound 0.0002 µM
  relative viability: 0.401
SK-MES-1; first compound 0.000632 µM
  relative viability: 0.444
SK-MES-1; first compound 0.002 µM
  relative viability: 0.382
SK-MES-1; first compound 0.006325 µM
  relative viability: 0.303
SK-MES-1; first compound 0.02 µM
  relative viability: 0.176
SW 1573; first compound 0.0002 µM
  relative viability: 0.316
SW 1573; first compound 0.000632 µM
  relative viability: 0.23
SW 1573; first compound 0.002 µM
  relative viability: 0.155
SW 1573; first compound 0.006325 µM
  relative viability: 0.196
SW 1573; first compound 0.02 µM
  relative viability: 0.0993
NCI-H1648; first compound 0.0002 µM
  relative viability: 0.265
NCI-H1648; first compound 0.000632 µM
  relative viability: 0.26
NCI-H1648; first compound 0.002 µM
  relative viability: 0.271
NCI-H1648; first compound 0.006325 µM
  relative viability: 0.249
NCI-H1648; first compound 0.02 µM
  relative viability: 0.247
NCI-H1651; first compound 0.0002 µM
  relative viability: 0.478
NCI-H1651; first compound 0.000632 µM
  relative viability: 0.543
NCI-H1651; first compound 0.002 µM
  relative viability: 0.373
NCI-H1651; first compound 0.006325 µM
  relative viability: 0.212

## Nc1ccn([C@@H]2O[C@H](CO)[C@@H](O)[C@@H]2O)c(=O)n1 [Cytarabine] + CC(=O)Nc1cccc(-n2c(=O)n(C3CC3)c(=O)c3c(Nc4ccc(I)cc4F)n(C)c(=O)c(C)c32)c1 [Trametinib] (partner 0.02 µM)
COR-L23; first compound 0.005 µM
  relative viability: 0.71
COR-L23; first compound 0.01581 µM
  relative viability: 0.529
COR-L23; first compound 0.05 µM
  relative viability: 0.546
COR-L23; first compound 0.1581 µM
  relative viability: 0.304
COR-L23; first compound 0.5 µM
  relative viability: 0.203
NCI-H1437; first compound 0.005 µM
  relative viability: 0.503
NCI-H1437; first compound 0.01581 µM
  relative viability: 0.406
NCI-H1437; first compound 0.05 µM
  relative viability: 0.416
NCI-H1437; first compound 0.1581 µM
  relative viability: 0.238
NCI-H1437; first compound 0.5 µM
  relative viability: 0.178
ChaGo-K-1; first compound 0.005 µM
  relative viability: 0.688
ChaGo-K-1; first compound 0.01581 µM
  relative viability: 0.625
ChaGo-K-1; first compound 0.05 µM
  relative viability: 0.504
ChaGo-K-1; first compound 0.1581 µM
  relative viability: 0.308
ChaGo-K-1; first compound 0.5 µM
  relative viability: 0.247
SK-MES-1; first compound 0.005 µM
  relative viability: 0.545
SK-MES-1; first compound 0.01581 µM
  relative viability: 0.603
SK-MES-1; first compound 0.05 µM
  relative viability: 0.315
SK-MES-1; first compound 0.1581 µM
  relative viability: 0.215
SK-MES-1; first compound 0.5 µM
  relative viability: 0.227
SW 1573; first compound 0.005 µM
  relative viability: 0.509
SW 1573; first compound 0.01581 µM
  relative viability: 0.482
SW 1573; first compound 0.05 µM
  relative viability: 0.415
SW 1573; first compound 0.1581 µM
  relative viability: 0.177
SW 1573; first compound 0.5 µM
  relative viability: 0.0822
NCI-H1648; first compound 0.005 µM
  relative viability: 0.419
NCI-H1648; first compound 0.01581 µM
  relative viability: 0.4
NCI-H1648; first compound 0.05 µM
  relative viability: 0.44
NCI-H1648; first compound 0.1581 µM
  relative viability: 0.36
NCI-H1648; first compound 0.5 µM
  relative viability: 0.373
NCI-H1651; first compound 0.005 µM
  relative viability: 0.846
NCI-H1651; first compound 0.01581 µM
  relative viability: 0.858
NCI-H1651; first compound 0.05 µM
  relative viability: 0.818
NCI-H1651; first compound 0.1581 µM
  relative viability: 0.591
NCI-H1651; first compound 0.5 µM
  relative viability: 0.384
